This passage reports IC50 results from patent US9765054B2, “Histone deacetylase inhibitors and compositions and methods of use thereof” (CHDI Foundation, Inc., priority 2011, dated 2017).

Experiment [1] concerns the target human catalytic domain HDAC4 protein (Homo sapiens, UniProt P56524, A743G/DEL730-739/DEL742-742). Kind of experiment: Inhibition of HDAC4 catalytic domain enzymatic activity, Boc-Lys(Tfa)-AMC substrate, fluorescence.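 Also: trypsin releases AMC from deacetylated substrate, fluorescence tracks enzyme activity, 15 min reaction at 37 °C, 100% activity defined by DMSO-only control.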 To be noted: Class IIa selective substrate Boc-Lys(Tfa)-AMC, read-out: Biochemical HDAC-4 IC50.
The subject of experiment [2] is cellular histone deacetylase enzymatic activity in Jurkat E6-1 cells. Nature of the experiment: Inhibition of cellular HDAC activity, Boc-Lys(Tfa)-AMC substrate, in Jurkat E6-1 cells. The format is cell-based. To be noted: Homo sapiens, Class IIa selective substrate Boc-Lys(Tfa)-AMC. The text has this:
The potency of Class IIa Histone Deacetylase (HDAC) inhibitors is quantified by measuring the cellular histone deacetylase enzymatic activity using the Class IIa selective substrate, Boc-Lys(Tfa)-AMC. After penetration in Jurkat E6-1 cells, the substrate is deacetylated to Boc-Lys-AMC. After cell lysis and cleavage by trypsin, the fluorophore AMC is released from the deacetylated substrate only. The fluoresence of the sample is directly related to the histone deacetylase activity in the sample.
Jurkat E6.1 Cell Culture and Plating.
Jurkat E6.1 cells are cultured according to standard cell culture protocols in Jurkat E6.1 Growth Media (RPMI without phenol red, 10% FBS, 10 mM HEPES, and 1 mM Sodium Pyruvate). Jurkat E6.1 cells are counted using a Coulter Counter and resuspended in Jurkat E6.1 growth media at a concentration of 75,000 cells/35 μl. 35 μl or 75,000 cells is seeded into Greiner microtitre assay plates. The plates are then incubated at 37° C. and 5% CO2 while other assay components are being prepared.
Serially Dilute HDAC Inhibitor Compounds.
Serial dilutions of the HDAC inhibitors and control reference compound (1-(5-(3-((4-(1,3,4-oxadiazol-2-yl)phenoxy)methyl)-1,2,4-oxadiazol-5-yl)thiophen-2-yl)-2,2,2-trifluoroethanone) are made by first resuspending the lyophilized compound to a final concentration of 10 mM in 100% DMSO. Stocks of 70 μl aliquots of the 10 mM compound in DMSO are prepared and stored at −20° C. From one stock aliquot of each compound to be tested and the reference compound, a 16-point serial dilution is prepared according to Table 7 using a 125 μl 16-channel Matrix multi-channel pipette.
2 μl (200×) of each diluted solution and each control (full activity: 100% DMSO alone or full inhibition 1 mM) is stamped into V-bottom polypropylene 384-well compound plates using either the Bravo, Janus, or […] 16-channel Matrix multi-channel pipette. Each well with the 200× compound solution is diluted 1:20 by the addition of 38 μl Jurkat assay buffer+DMSO (9.5% DMSO, RPMI without phenol red, 0.09% FBS, 9 mM Hepes, and 0.9 mM Sodium Pyruvate equilibrated to room temperature)
Prepare 5× (500 μM) Boc-Lys(Tfa)-AMC Substrate.
5× (500 μM) substrate is prepared just prior to the addition to the assay. The 5× substrate is prepared by diluting a 100 mM Boc-Lys(Tfa)-AMC in DMSO solution 1:200 by adding it drop-wise to Jurkat assay medium (RPMI without phenol red, 0.1% FBS, 10 mM Hepes, and 1 mM Sodium Pyruvate equilibrated to 37° C.) while vortexing at slow speed to prevent precipitation.
10 ml of 3× lysis buffer is prepared with 8.8 ml of 3× stock lysis buffer (50 mM Tris-HCl, pH 8.0, 137 mM NaCl, 2.7 mM KCl, 1 mM MgCl2, 1% Nonidet P40 Substitute equilibrated to room temperature) and 1.2 ml of 3 mg/ml Trypsin equilibrated to room temperature.
5 μl of each solution of 1:20 diluted compound from above is transferred to the Greiner microtitre assay plates with 75,000 cells/well using the Bravo. Cells are then incubated for 2 hours at 37° C. and 5% CO2. The assay is then started by adding 10 μl of 5× (500 μM) substrate to the assay plate using either the Bravo or 16-channel Matrix multi-channel pipette. The cells are then incubated for 3 hours at 37° C. and 5% CO2. Next, 25 μl of 3× lysis buffer is added to each well using either the 125 μl 16 channel pipette or the Bravo. The assay plate is then incubated overnight (15-16 hours) at 37° C. and 5% CO2. The following day, the plates are shaken on an orbital shaker for 1 minute at 900 rpm. Finally the top read fluorescence (Excitation: 355 nm, Emission: 460 nm) is measured using PerkinElmer EnVision.

As usually defined, the IC50 is the concentration needed to halve the response being measured. `O=C(NO)[C@@H]1[C@H](c2ccccc2)[C@H]1c1ccc(C2=CCN(Cc3ccccc3)CC2)cc1` [Compound 71, (1R,2R,3R)-2-(4-(1-Benzyl-1,2,3,6-tetrahydropyridin-4-yl)phenyl)-N-hydroxy-3-phenylcyclopropanecarboxamide]: the results for the IC50 in experiment [1] and in experiment [2] were 350 nM and 750 nM, respectively.

Consider `O=C(NO)[C@H]1[C@H](c2cc(Cl)c3c(c2)OCCO3)[C@H]1c1ccccc1F` [Compound 25f, (1S,2R,3R)-2-(8-Chloro-2,3-dihydrobenzo[b][1,4]dioxin-6-yl)-3-(2-fluorophenyl)-N-hydroxycyclopropanecarboxamide], for which the IC50 turned out to be 30 nM in experiment [1] and 240 nM in experiment [2].

As for `O=C(NO)[C@@H]1[C@H](c2ccccc2)[C@H]1c1ccc(-c2ccc(-n3c4ccccc4c4ccccc43)cc2)cc1` (racemic) [Compound 54b, (1R*,2R*,3R*)-2-(4′-(9H-carbazol-9-yl)-[1,1′-biphenyl]-4-yl)-N-hydroxy-3-phenylcyclopropanecarboxamide], the 50% inhibitory concentration (IC50) in experiment [1] is 5660 nM; in experiment [2], 50000 nM.

Turning to `CN1CCN(c2ccc([C@H]3[C@H](C(=O)NO)[C@@H]3c3ccccc3)cc2)CC1` (racemic) [Compound 56i, (1R*,2R*,3R*)—N-Hydroxy-2-(4-(4-methylpiperazin-1-yl)phenyl)-3-phenylcyclopropanecarboxamide], the values for the half-inhibitory concentration (IC50) in experiment [1] and in experiment [2] were 140 nM and 1310 nM, respectively.

On to `Cc1cnc(-c2ccc([C@H]3[C@H](C(=O)NO)[C@@H]3c3ccccc3)cc2)s1` [Compound 102, (1R,2R,3R)—N-hydroxy-2-(4-(5-methylthiazol-2-yl)phenyl)-3-phenylcyclopropanecarboxamide], for which the IC50 came out at 40 nM in experiment [1] and 440 nM in experiment [2].

As to `O=C(NO)[C@@H]1[C@H](c2ccccc2)[C@H]1c1cccc(Br)c1` (racemic) [Compound 16b, (1R*,2R*,3R*)-2-(3-Bromophenyl)-N-hydroxy-3-phenylcyclopropanecarboxamide], the concentration for half-maximal inhibition (IC50) in experiment [1] worked out at 70 nM; in experiment [2], 1410 nM.

With `CC(C)Oc1ccccc1[C@@H]1C(c2ccccc2)[C@H]1C(=O)NO` (mixture of isomers) [Compound 11a, (1R,2R,3R*)—N-Hydroxy-2-(2-isopropoxyphenyl)-3-phenylcyclopropanecarboxamide], the IC50 in experiment [1] stood at 20600 nM; in experiment [2], 50000 nM.

For the compound `O=C(NO)[C@@H]1[C@H](c2ccccc2)[C@H]1c1ccc(-c2ncc(C(F)(F)F)cn2)cc1` [Compound 50e, (1R,2R,3R)-2-(4-(5-Trifluoromethylpyrimidin-2-yl)phenyl)-N-hydroxy-3-phenylcyclopropanecarboxamide], the half-inhibitory concentration (IC50) in experiment [1] was found to be 180 nM; in experiment [2] it was 690 nM.

Take `O=C(NO)[C@@H]1[C@H](c2ccccc2)[C@H]1c1ccccc1Br` (racemic) [Compound 16a, (1R*,2R*,3R*)-2-(2-Bromophenyl)-N-hydroxy-3-phenylcyclopropanecarboxamide]: the half-inhibitory concentration (IC50) turned out to be 620 nM in experiment [1] and 6530 nM in experiment [2].

For `O=C(NO)[C@@H]1[C@H](c2ccccc2)[C@H]1c1ccc2c(c1)OC(F)(F)O2` [Compound 28e, (1R,2R,3R)-2-(2,2-Difluorobenzo[d][1,3]dioxol-5-yl)-N-hydroxy-3-phenylcyclopropanecarboxamide], the IC50 stood at 120 nM in experiment [1] and 2030 nM in experiment [2].

Take `O=C(NO)[C@@H]1[C@H](c2ccc(F)cc2)[C@H]1c1ccnc(C2CC2)c1` [Compound 28d, (1R,2R,3R)-2-(2-Cyclopropylpyridin-4-yl)-3-(4-fluorophenyl)-N-hydroxycyclopropanecarboxamide]: the IC50 in experiment [1] was 120 nM; in experiment [2], 790 nM.

For the compound `O=C(NO)[C@@H]1[C@H](c2cccc(F)c2)[C@H]1c1ccnc(C2CC2)c1` [Compound 100b, (1S,2R,3R)-2-(2-Cyclopropylpyridin-4-yl)-3-(3-fluorophenyl)-N-hydroxycyclopropanecarboxamide], the IC50 in experiment [1] stood at 20 nM; in experiment [2], 420 nM.

With `CC(C)N1CCN(c2cccc([C@H]3[C@H](C(=O)NO)[C@@H]3c3ccccc3)c2)CC1` (racemic) [Compound 56b, (1R*,2R*,3R*)—N-Hydroxy-2-(3-(4-isopropylpiperazin-1-yl)phenyl)-3-phenylcyclopropanecarboxamide], the half-maximal inhibitory concentration (IC50) in experiment [1] came out at 1430 nM; in experiment [2] it was 5080 nM.

`O=C(NO)[C@@H]1[C@H](c2ccccc2)[C@H]1c1ccc(Br)cc1` (racemic) [Compound 16c, (1R*,2R*,3R*)-2-(4-Bromophenyl)-N-hydroxy-3-phenylcyclopropanecarboxamide]: the IC50 in experiment [1] turned out to be 370 nM; in experiment [2], 2870 nM.

As to `O=C(NO)[C@@H]1[C@H](c2ccccc2)[C@H]1c1cccc(N2CCC(N3CCCC3)CC2)c1` (racemic) [Compound 56g, (1R*,2R*,3R*)—N-Hydroxy-2-phenyl-3-(3-(4-(pyrrolidin-1-yl)piperidin-1-yl)phenyl)cyclopropanecarboxamide], the IC50 in experiment [1] was found to be 390 nM; in experiment [2], 2180 nM.

For the compound `O=C(NO)[C@@H]1[C@H](c2ccccc2)[C@H]1c1ccc(-c2cccc(OCc3ccccc3)c2)cc1` [Compound 54a, (1R,2R,3R)-2-(3′-(Benzyloxy)-[1,1′-biphenyl]-4-yl)-N-hydroxy-3-phenylcyclopropanecarboxamide], the results for the IC50 in experiment [1] and in experiment [2] were 990 nM and 8850 nM, respectively.

With `Cc1cccc([C@H]2[C@H](C(=O)NO)[C@@H]2c2ccccc2)c1` (racemic) [Compound 18b, (1R*,2R*,3R*)—N-Hydroxy-2-phenyl-3-m-tolylcyclopropanecarboxamide], the figures for the IC50 in experiment [1] and in experiment [2] were 150 nM and 2740 nM, respectively.

Turning to `O=C(NO)[C@@H]1[C@H](c2ccccc2)[C@H]1c1ccc(-c2ccc3c(c2)CN(C2CC2)C3)cc1` (racemic) [Compound 52, (1R*,2R*,3R*)-2-(4-(2-cyclopropylisoindolin-5-yl)phenyl)-N-hydroxy-3-phenylcyclopropanecarboxamide], the IC50 in experiment [1] is 480 nM; in experiment [2], 1790 nM.

Regarding `Cc1ncc(-c2ccc([C@H]3[C@H](C(=O)NO)[C@@H]3c3ccccc3F)cc2)o1` [Compound 75b, (1S,2R,3R)-2-(2-Fluorophenyl)-N-hydroxy-3-(4-(2-methyloxazol-5-yl)phenyl)cyclopropanecarboxamide], the values for the half-inhibitory concentration (IC50) in experiment [1] and in experiment [2] were 50 nM and 470 nM, respectively.

Take `O=C(NO)[C@@H]1[C@H](c2ccccc2)[C@H]1c1ccc(-n2ccnc2)cc1` (racemic) [Compound 42, (1R*,2R*,3R*)-2-(4-(1H-imidazol-1-yl)phenyl)-N-hydroxy-3-phenylcyclopropanecarboxamide]: the IC50 in experiment [1] stood at 200 nM; in experiment [2], 1630 nM.

With `O=C(NO)[C@@H]1[C@H](c2ccccc2)[C@H]1c1cnn(-c2ccc(C(F)(F)F)cn2)c1` [Compound 92b, (1R,2R,3R)—N-Hydroxy-2-phenyl-3-(1-(5-(trifluoromethyl)pyridin-2-yl)-1H-pyrazol-4-yl)cyclopropanecarboxamide], the concentration for half-maximal inhibition (IC50) turned out to be 180 nM in experiment [1] and 1170 nM in experiment [2].

For the compound `O=C(NO)[C@@H]1[C@H](c2ccccc2)[C@H]1c1ccc(-c2cnc(-c3ccccc3)o2)cc1` (racemic) [Compound 48, (1R*,2R*,3R*)—N-Hydroxy-2-phenyl-3-(4-(2-phenyloxazol-5-yl)phenyl)cyclopropanecarboxamide], the IC50 in experiment [1] stood at 280 nM; in experiment [2] it was 1260 nM.
